Assay results reported in patent publication US9499509B2, “Dihydrochalcone derivatives and their use as antibiotic agents” (UNIVERSITÉ DU QUÉBEC À CHICOUTIMI, priority 2012, dated 2016).
Like-named read-outs stand apart in the source and are kept apart here.

Key:
[1] = tested on: methicillin-resistant Staphylococcus aureus (MRSA) strains; assay: Antibiotic assay (resazurin, Example 1), MRSA strains; format: cell-based; conditions: for IC50: read-out: IC50
Procedure, shortened: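 Ten MRSA strains isolated from screening swabs (nares, throat, groin pus) of patients at Chicoutimi hospital were tested, with S. aureus wild-type strain ATCC25923 run alongside. Isolates were identified using the Slidex Staph-Kit and API Staph strips. Methicillin resistance was confirmed by PBP2a latex agglutination and by a Kirby-Bauer disk diffusion antibiogram on Muller-Hinton agar at 37° C.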

[2] = tested on: S. aureus; assay: Antibiotic assay (resazurin, Example 1), S. aureus strains of Table 3; format: cell-based, Staphylococcus aureus; conditions: for IC50: read-out: IC50
Source text: (§1) Bacteria Strain. […] The MRSA were obtained as further described below.
(§2) Antibiotic agents. Cyprofloxacin and erythromycin were provided by Sigma-Aldrich. Gentamicin sulfate and vancomycin hydrochloride were provided by Calbiochem.

[3] = tested on: Streptococcus pneumoniae; assay: Antibiotic assay (resazurin, Example 1), Streptococcus pneumoniae; format: cell-based; conditions: for IC50: read-out: IC50
Procedure: as §1, §2
(§3) Five additional strains were tested: Streptococcus pneumoniae, Streptococcus agalactiae, Streptococcus pyogenes, Enterococcus faecalis and Corynebacterium jeikeium.

[4] = tested on: Enterococcus faecalis; assay: Antibiotic assay (resazurin, Example 1), Enterococcus faecalis; format: cell-based; conditions: for IC50: read-out: IC50
Procedure: as §1, §2, §3

[5] = tested on: Corynebacterium jeikeium; assay: Antibiotic assay (resazurin, Example 1), Corynebacterium jeikeium; format: cell-based; conditions: Coryne. jeikeium 14139
Procedure: as §1, §2, §3

[6] = tested on: Streptococcus pyogenes; assay: Antibiotic assay (resazurin, Example 1), Streptococcus pyogenes; format: cell-based; conditions: for IC50: read-out: IC50
Procedure: as §1, §2, §3

[7] = tested on: Streptococcus agalactiae; assay: Antibiotic assay (resazurin, Example 1), Streptococcus agalactiae; format: cell-based; conditions: for IC50: read-out: IC50
Procedure: as §1, §2, §3

[8] = tested on: WS-1 cell lines; assay: Cytotoxicity assay on WS-1 (Example 1)
Procedure: Cytotoxicity assay. The cytotoxicity assay was performed in 96-well plates (BD Falcon). The WS-1 cell lines were provided by ATCC. The WS-1 was cultured in DMEM+10% fetal calf serum. The cells were plated in a volume of 100 μL at a density of 5000 cells per well and incubated at 37° C.+5% CO2 for 24 h to promote cell adhesion.
The plates were incubated at 37° C.+5% CO2 for 48 h. The cells were then washed with 100 μL of HBSS and 150 μL of a 2% resazurin were added to the wells.
The therapeutic index is the ratio between the toxicity on normal cells, in this case fibroblast, and the toxicity on bacteria.

[9] = tested on: S. epidermidis; assay: Antibiotic assay (resazurin, Example 1), S. epidermidis strains

SMILES: COc1cc(O)c(C(=O)CCc2ccc(O)cc2)c(O)c1C/C=C/c1ccc(O)cc1 [Compound I]
- Minimum Inhibitory Concentration (MIC) ([1]; MRSA 1): (5.11) μM
- IC50 ([1]; MRSA 1): 2.2 ± 0.2 µM
- Minimum Inhibitory Concentration (MIC) ([1]; MRSA 2): (5.22) μM
- IC50 ([1]; MRSA 2): 2.2 ± 0.2 µM
- Minimum Inhibitory Concentration (MIC) ([1]; MRSA 3): (5.54) μM
- IC50 ([1]; MRSA 3): 2.1 ± 0.2 µM
- Minimum Inhibitory Concentration (MIC) ([1]; MRSA 4): (4.82) μM
- IC50 ([1]; MRSA 4): 2.1 ± 0.2 µM
- Minimum Inhibitory Concentration (MIC) ([1]; MRSA 5): (5.07) μM
- IC50 ([1]; MRSA 5): 1.7 ± 0.2 µM
- Minimum Inhibitory Concentration (MIC) ([1]; MRSA 6): (5.01) μM
- IC50 ([1]; MRSA 6): 2 ± 0.2 µM
- Minimum Inhibitory Concentration (MIC) ([1]; MRSA 7): (4.39) μM
- IC50 ([1]; MRSA 7): 2.1 ± 0.2 µM
- Minimum Inhibitory Concentration (MIC) ([1]; MRSA 8): (4.64) μM
- IC50 ([1]; MRSA 8): 2.1 ± 0.2 µM
- Minimum Inhibitory Concentration (MIC) ([1]; MRSA 9): (5.00) μM
- IC50 ([1]; MRSA 9): 2.3 ± 0.2 µM
- Minimum Inhibitory Concentration (MIC) ([1]; MRSA 10): (5.15) μM
- IC50 ([1]; MRSA 10): 2.6 ± 0.2 µM
- Minimum Inhibitory Concentration (MIC) ([2]; S. aureus 14094): (6.54) μM
- IC50 ([2]; S. aureus 14094): 3.5 ± 0.3 µM
- Minimum Inhibitory Concentration (MIC) ([2]; S. aureus 14108): (8.73) μM
- IC50 ([2]; S. aureus 14108): 2.7 ± 0.3 µM
- Minimum Inhibitory Concentration (MIC) ([2]; S. aureus 14118): (5.27) μM
- IC50 ([2]; S. aureus 14118): 3.5 ± 0.1 µM
- Minimum Inhibitory Concentration (MIC) ([2]; S. aureus 14154): (4.37) μM
- IC50 ([2]; S. aureus 14154): 2.3 ± 0.1 µM
- Minimum Inhibitory Concentration (MIC) ([3]; Strep. pneumoniae 14070): (74.1) μM
- IC50 ([3]; Strep. pneumoniae 14070): 29 ± 5 µM
- Minimum Inhibitory Concentration (MIC) ([3]; Strep. pneumoniae 14112): (66.2) μM
- IC50 ([3]; Strep. pneumoniae 14112): 29 ± 3 µM
- Minimum Inhibitory Concentration (MIC) ([3]; Strep. pneumoniae 14138): (>200) μM
- IC50 ([3]; Strep. pneumoniae 14138): 142 ± 12 µM
- Minimum Inhibitory Concentration (MIC) ([3]; Strep. pneumoniae 14144): (>200) μM
- IC50 ([3]; Strep. pneumoniae 14144): > 200 µM
- Minimum Inhibitory Concentration (MIC) ([3]; Strep. pneumoniae 14148): (81.2) μM
- IC50 ([3]; Strep. pneumoniae 14148): 40 ± 4 µM
- activity against Streptococcus pneumoniae 14070 strain ([3]; in words): active
- activity against Streptococcus pneumoniae strain 14112 ([3]; in words): active
- activity against Streptococcus pneumoniae strain 14138 ([3]; in words): had an activity
- activity against Streptococcus pneumoniae strain 14144 ([3]; in words): not active
- activity against Streptococcus pneumoniae strain 14148 ([3]; in words): active
- Minimum Inhibitory Concentration (MIC) ([4]; Ent. Faecalis 14078): (>200) μM
- IC50 ([4]; Ent. Faecalis 14078): > 200 µM
- Minimum Inhibitory Concentration (MIC) ([4]; Ent. Faecalis 14115): (>200) μM
- IC50 ([4]; Ent. Faecalis 14115): > 200 µM
- activity against Enterococcus faecalis ([4]; in words): No activity
- Minimum Inhibitory Concentration (MIC) [5]: (67.5) μM
- IC50 ([5]; read-out: IC50): 14 ± 3 µM
- Minimum Inhibitory Concentration (MIC) ([6]; Strep. pyogenes 14149): (200) μM
- IC50 ([6]; Strep. pyogenes 14149): 118 µM
- Minimum Inhibitory Concentration (MIC) ([6]; Strep. pyogenes 14152): (>200) μM
- IC50 ([6]; Strep. pyogenes 14152): 44 ± 10 µM
- activity against Streptococcus pyogenes strain 14152 ([6]; in words): active
- Minimum Inhibitory Concentration (MIC) ([7]; Strep. agalactiae 14150): (200) μM
- IC50 ([7]; Strep. agalactiae 14150): 144 ± 2 µM
- Minimum Inhibitory Concentration (MIC) ([7]; Strep. agalactiae 14151): (>200) μM
- IC50 ([7]; Strep. agalactiae 14151): 198 ± 3 µM
- Minimum Inhibitory Concentration (MIC) ([7]; Strep. agalactiae 14153): (>200) μM
- IC50 ([7]; Strep. agalactiae 14153): 174 ± 3 µM
- activity against Streptococcus agalactiae strain 14150 ([7]; in words): active
- WS-1 (toxicity on normal cells, fibroblast) [8]: 49 ± 9
- IC50 ([9]; S. epidermidis 14069): 5.3 ± 0.2 µM
- Minimum Inhibitory Concentration (MIC) ([9]; S. epidermidis 14069): (19.9) μM
- IC50 ([9]; S. epidermidis 14085): 4.5 ± 0.3 µM
- Minimum Inhibitory Concentration (MIC) ([9]; S. epidermidis 14085): (23.5) μM
- IC50 ([9]; S. epidermidis 14093): 8.6 ± 0.6 µM
- Minimum Inhibitory Concentration (MIC) ([9]; S. epidermidis 14093): (11.6) μM
- IC50 ([9]; S. epidermidis 14134): 3.7 ± 0.4 µM
- Minimum Inhibitory Concentration (MIC) ([9]; S. epidermidis 14134): (19) μM
- IC50 ([9]; S. epidermidis 14143): 6.7 ± 0.3 µM
- Minimum Inhibitory Concentration (MIC) ([9]; S. epidermidis 14143): (15.2) μM
- activity on S. epidermidis compared with ciprofloxacin ([9]; in words): more active than ciprofloxacin
